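Following 48 hours of exposure in 96-well plates, responses at five concentrations were used to interpolate endpoints linearly. TGI: total growth inhibition.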
Tested on: HOP-62 NSCLC
Test: growth of human tumour cells (NCI), 48 h

| Structure (SMILES) | TGI [µM] |
| --- | --- |
| O=C(/C=C/c1ccc2c(c1)OCO2)c1ccc(O)cc1 | 66.1 |
| c1ccc2c(c1)Cn1c-2nc2ccccc21 | > 100 |
| Oc1ccc2c(c1)c1c(n2CCN2CCOCC2)-c2ccccc2CC1 | 59.2 |

Tested on: SR leukemia
Test: growth of human tumour cells (NCI), 48 h

| Structure (SMILES) | TGI [µM] |
| --- | --- |
| O=C1CCCCC1CN1CCCCC1 (stereo not drawn) | > 100 |
| CCOC(=O)Nc1sc2c(c1C#N)CCCC2 | > 100 |
| O=C1CN(c2cccc(Cl)c2)C(=O)CN1CCN1CC(=O)N(c2cccc(Cl)c2)CC1=O | > 100 |
| O=C(/C=C/c1ccc2c(c1)OCO2)c1ccc(O)cc1 | 4.96 |
| Oc1ccc2c(c1)c1c(n2CCN2CCOCC2)-c2ccccc2CC1 | 91.5 |

Tested on: NCI-H460 lung
Test: growth of human tumour cells (NCI), 48 h

| Structure (SMILES) | TGI [µM] |
| --- | --- |
| O=C1CCCCC1CN1CCCCC1 (stereo not drawn) | > 100 |
| CCOC(=O)Nc1sc2c(c1C#N)CCCC2 | > 100 |
| O=C1CN(c2cccc(Cl)c2)C(=O)CN1CCN1CC(=O)N(c2cccc(Cl)c2)CC1=O | > 100 |
| Nc1nc2c(c(-c3cccc(Cl)c3)n1)COC/C2=C\c1cccc(Cl)c1 | > 100 |
| O=C(/C=C/c1ccc2c(c1)OCO2)c1ccc(O)cc1 | 28.6 |
| c1ccc2c(c1)Cn1c-2nc2ccccc21 | > 100 |
| Oc1ccc2c(c1)c1c(n2CCN2CCOCC2)-c2ccccc2CC1 | 44.2 |

Tested on: MDA-MB-231 breast
Test: growth of human tumour cells (NCI), 48 h

| Structure (SMILES) | TGI [µM] |
| --- | --- |
| O=C1CCCCC1CN1CCCCC1 (stereo not drawn) | > 100 |
| CCOC(=O)Nc1sc2c(c1C#N)CCCC2 | > 100 |
| Nc1nc2c(c(-c3cccc(Cl)c3)n1)COC/C2=C\c1cccc(Cl)c1 | > 100 |
| O=C(/C=C/c1ccc2c(c1)OCO2)c1ccc(O)cc1 | 31.5 |
| c1ccc2c(c1)Cn1c-2nc2ccccc21 | > 100 |
| Oc1ccc2c(c1)c1c(n2CCN2CCOCC2)-c2ccccc2CC1 | 80 |

Tested on: HCT-116 colon
Test: growth of human tumour cells (NCI), 48 h

| Structure (SMILES) | TGI [µM] |
| --- | --- |
| O=C1CCCCC1CN1CCCCC1 (stereo not drawn) | > 100 |
| CCOC(=O)Nc1sc2c(c1C#N)CCCC2 | > 100 |
| O=C1CN(c2cccc(Cl)c2)C(=O)CN1CCN1CC(=O)N(c2cccc(Cl)c2)CC1=O | > 100 |
| Nc1nc2c(c(-c3cccc(Cl)c3)n1)COC/C2=C\c1cccc(Cl)c1 | > 100 |
| O=C(/C=C/c1ccc2c(c1)OCO2)c1ccc(O)cc1 | 26.2 |
| c1ccc2c(c1)Cn1c-2nc2ccccc21 | > 100 |
| Oc1ccc2c(c1)c1c(n2CCN2CCOCC2)-c2ccccc2CC1 | > 100 |

Tested on: UO-31 renal
Test: growth of human tumour cells (NCI), 48 h

| Structure (SMILES) | TGI [µM] |
| --- | --- |
| O=C1CCCCC1CN1CCCCC1 (stereo not drawn) | > 100 |
| CCOC(=O)Nc1sc2c(c1C#N)CCCC2 | > 100 |
| O=C1CN(c2cccc(Cl)c2)C(=O)CN1CCN1CC(=O)N(c2cccc(Cl)c2)CC1=O | > 100 |
| Nc1nc2c(c(-c3cccc(Cl)c3)n1)COC/C2=C\c1cccc(Cl)c1 | 76.3 |
| O=C(/C=C/c1ccc2c(c1)OCO2)c1ccc(O)cc1 | 26.2 |
| c1ccc2c(c1)Cn1c-2nc2ccccc21 | 23 |
| Oc1ccc2c(c1)c1c(n2CCN2CCOCC2)-c2ccccc2CC1 | > 100 |

Tested on: SK-MEL-2 melanoma
Test: growth of human tumour cells (NCI), 48 h

| Structure (SMILES) | TGI [µM] |
| --- | --- |
| O=C1CCCCC1CN1CCCCC1 (stereo not drawn) | > 100 |
| CCOC(=O)Nc1sc2c(c1C#N)CCCC2 | > 100 |
| Nc1nc2c(c(-c3cccc(Cl)c3)n1)COC/C2=C\c1cccc(Cl)c1 | > 100 |
| O=C(/C=C/c1ccc2c(c1)OCO2)c1ccc(O)cc1 | 32.7 |
| c1ccc2c(c1)Cn1c-2nc2ccccc21 | > 100 |
| Oc1ccc2c(c1)c1c(n2CCN2CCOCC2)-c2ccccc2CC1 | 55.1 |

Tested on: SK-MEL-28 melanoma
Test: growth of human tumour cells (NCI), 48 h

| Structure (SMILES) | TGI [µM] |
| --- | --- |
| O=C1CCCCC1CN1CCCCC1 (stereo not drawn) | > 100 |
| CCOC(=O)Nc1sc2c(c1C#N)CCCC2 | > 100 |
| O=C1CN(c2cccc(Cl)c2)C(=O)CN1CCN1CC(=O)N(c2cccc(Cl)c2)CC1=O | > 100 |
| Nc1nc2c(c(-c3cccc(Cl)c3)n1)COC/C2=C\c1cccc(Cl)c1 | > 100 |
| O=C(/C=C/c1ccc2c(c1)OCO2)c1ccc(O)cc1 | 41.1 |
| c1ccc2c(c1)Cn1c-2nc2ccccc21 | > 100 |
| Oc1ccc2c(c1)c1c(n2CCN2CCOCC2)-c2ccccc2CC1 | 55.6 |
